Assay results reported in patent publication US6737383B1, “Herbicidal oxadiazolidines” (priority 1999, dated 2004).

Legend:
bedstraw = test: Test B pre/postemergence bedstraw; assay type: in vivo, Galium aparine
In short: (§1)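 Response is a visual 0-to-10 score relative to untreated plants, where 0 means no effect and 10 means complete control, taken twelve to sixteen days after application. Treatments went onto soil at planting and onto foliage of 1- to 4-leaf plants, using a surfactant-containing non-phytotoxic solvent.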

blackgrass = test: Test B pre/postemergence blackgrass; assay type: in vivo, Alopecurus myosuroides
In short: as §1

surinam grass = test: Test B pre/postemergence surinam grass; assay type: in vivo, Brachiaria decumbens
In short: as §1

cocklebur = test: Test B pre/postemergence cocklebur; assay type: in vivo, Xanthium strumarium
In short: as §1

corn = test: Test B pre/postemergence corn; assay type: in vivo, Zea mays
In short: as §1

giant foxtail = test: Test B pre/postemergence giant foxtail; assay type: in vivo, Setaria faberii
In short: as §1

morningglory = test: Test B pre/postemergence morningglory; assay type: in vivo, Ipomoea hederacea
In short: as §1

pigweed = test: Test B pre/postemergence pigweed; assay type: in vivo, Amaranthus retroflexus
In short: as §1

rape = test: Test B pre/postemergence rape; assay type: in vivo, Brassica napus
In short: as §1

soybean = test: Test B pre/postemergence soybean; assay type: in vivo, Glycine max
In short: as §1

sugar beet = test: Test B pre/postemergence sugar beet; assay type: in vivo, Beta vulgaris
In short: as §1

velvetleaf = test: Test B pre/postemergence velvetleaf; assay type: in vivo, Abutilon theophrasti
In short: as §1

wheat = test: Test B pre/postemergence wheat; assay type: in vivo, Triticum aestivum
In short: as §1

wild oat = test: Test B pre/postemergence wild oat; assay type: in vivo, Avena fatua
In short: as §1

rice = test: Test B flood test rice; assay type: in vivo, Oryza sativa
In short: (§2)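 Plants were grown to the 2-leaf stage before treatment with test chemical, then held in a greenhouse for twelve to sixteen days. Injury was visually rated against untreated controls on a 0–10 scale, where 0 is no effect and 10 is complete control.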

smallflower flatsedge = test: Test B flood test smallflower flatsedge; assay type: in vivo, Cyperus difformis
In short: as §2

[1] = Postemergence, Rate 62 g/ha, scale 0 to 10, 0 is no effect, 10 is complete control
[2] = Postemergence, Rate 250 g/ha, scale 0 to 10, 0 no effect, 10 complete control
[3] = Preemergence, Rate 62 g/ha, scale 0 to 10 (0 no effect, 10 complete control)
[4] = Preemergence, Rate 125 g/ha, scale 0 to 10 (0 no effect, 10 complete control)
[5] = Preemergence, Rate 250 g/ha, scale of 0 to 10 where 0 is no effect and 10 is complete control
[6] = Preemergence, Rate 500 g/ha, scale 0 (no effect) to 10 (complete control)
[7] = Rate 125 g/ha, Postemergence, scale 0 to 10, 0 no effect, 10 complete control
[8] = Rate 500 g/ha, Postemergence, scale 0 to 10, 0 no effect, 10 complete control
[9] = Rate 125 g/ha, Postemergence section (flood test species), scale 0 to 10, 0 no effect, 10 complete control
[10] = Rate 500 g/ha, listed under Postemergence (flood test species), scale 0 to 10, 0 no effect, 10 complete control
[11] = flood test, listed under Postemergence, Rate 250 g/ha, scale 0 to 10, 0 no effect, 10 complete control

Cc1nn(C)c(C)c1-n1c(=O)on(C(=O)N(c2ccc(F)cc2)C(C)C)c1=O [Compound 75] was tested, and the “Bedstraw plant response rating” value (bedstraw; [1]) was 0, the “Bedstraw plant response rating” value (bedstraw; [2]) was 0 and the “Bedstraw plant response rating” value (bedstraw; [3]) was 0. For the same molecule, the “Plant response rating, Bedstraw” value (bedstraw; [4]) was 0, the “Plant response rating, Bedstraw” value (bedstraw; [5]) was 0 and the “Bedstraw plant response rating” value (bedstraw; [6]) was 0. For the same molecule, the “Bedstraw plant response rating” value (bedstraw; [7]) was 0, the “Bedstraw plant response rating” value (bedstraw; [8]) was 0 and the “Blackgrass plant response rating” value (blackgrass; [1]) was 3. The “Blackgrass plant response rating” value (blackgrass; [2]) was 7, the “Blackgrass plant response rating” value (blackgrass; [3]) was 0 and the “Plant response rating, Blackgrass” value (blackgrass; [4]) was 1. For the same molecule, the “Plant response rating, Blackgrass” value (blackgrass; [5]) was 7, the “Blackgrass plant response rating” value (blackgrass; [6]) was 9 and the “Blackgrass plant response rating” value (blackgrass; [7]) was 5. For the same molecule, the “Blackgrass plant response rating” value (blackgrass; [8]) was 9, the “B. signalgrass plant response rating” value (surinam grass; [1]) was 2 and the “B. signalgrass plant response rating” value (surinam grass; [2]) was 6. For the same molecule, the “B. signalgrass plant response rating” value (surinam grass; [3]) was 0, the “Plant response rating, B. signalgrass” value (surinam grass; [4]) was 1 and the “Plant response rating, B. signalgrass” value (surinam grass; [5]) was 2. The “B. signalgrass plant response rating” value (surinam grass; [6]) was 8, the “B. signalgrass plant response rating” value (surinam grass; [7]) was 3 and the “B. signalgrass plant response rating” value (surinam grass; Rate 500 g/ha, Postemergence, scale of 0 to 10 where 0 is no effect and 10 is complete control) was 8. The “Cocklebur plant response rating” value (cocklebur; [1]) was 0, the “Cocklebur plant response rating” value (cocklebur; [2]) was 1 and the “Cocklebur plant response rating” value (cocklebur; [3]) was 0. For the same molecule, the “Plant response rating, Cocklebur” value (cocklebur; [4]) was 0, the “Plant response rating, Cocklebur” value (cocklebur; [5]) was 0 and the “Cocklebur plant response rating” value (cocklebur; [6]) was 0. For the same molecule, the “Cocklebur plant response rating” value (cocklebur; [7]) was 0, the “Cocklebur plant response rating” value (cocklebur; [8]) was 1 and the “Corn plant response rating” value (corn; [1]) was 0. The “Corn plant response rating” value (corn; [2]) was 0, the “Corn plant response rating” value (corn; [3]) was 0 and the “Plant response rating, Corn” value (corn; [4]) was 0. The “Plant response rating, Corn” value (corn; [5]) was 0, the “Corn plant response rating” value (corn; [6]) was 0 and the “Corn plant response rating” value (corn; [7]) was 0. For the same molecule, the “Corn plant response rating” value (corn; [8]) was 0, the “Giant foxtail plant response rating” value (giant foxtail; [1]) was 3 and the “Giant foxtail plant response rating” value (giant foxtail; [2]) was 8. For the same molecule, the “Giant foxtail plant response rating” value (giant foxtail; [3]) was 6, the “Plant response rating, Giant foxtail” value (giant foxtail; [4]) was 9 and the “Plant response rating, Giant foxtail” value (giant foxtail; [5]) was 9. For the same molecule, the “Giant foxtail plant response rating” value (giant foxtail; [6]) was 10, the “Giant foxtail plant response rating” value (giant foxtail; [7]) was 6 and the “Giant foxtail plant response rating” value (giant foxtail; [8]) was 8. For the same molecule, the “Morningglory plant response rating” value (morningglory; [1]) was 1, the “Morningglory plant response rating” value (morningglory; [2]) was 1 and the “Morningglory plant response rating” value (morningglory; [3]) was 0. The “Plant response rating, Morningglory” value (morningglory; [4]) was 0, the “Plant response rating, Morningglory” value (morningglory; [5]) was 0 and the “Morningglory plant response rating” value (morningglory; [6]) was 2. For the same molecule, the “Morningglory plant response rating” value (morningglory; [7]) was 1, the “Morningglory plant response rating” value (morningglory; [8]) was 3 and the “Redroot pigweed plant response rating” value (pigweed; [1]) was 0. For the same molecule, the “Redroot pigweed plant response rating” value (pigweed; [2]) was 0, the “Redroot pigweed plant response rating” value (pigweed; [3]) was 0 and the “Plant response rating, Redroot pigweed” value (pigweed; [4]) was 2. For the same molecule, the “Plant response rating, Redroot pigweed” value (pigweed; [5]) was 7, the “Redroot pigweed plant response rating” value (pigweed; [6]) was 10 and the “Redroot pigweed plant response rating” value (pigweed; [7]) was 0. The “Redroot pigweed plant response rating” value (pigweed; [8]) was 0, the “Rape plant response rating” value (rape; [1]) was 0 and the “Rape plant response rating” value (rape; [2]) was 0. The “Rape plant response rating” value (rape; [3]) was 0, the “Plant response rating, Rape” value (rape; [4]) was 0 and the “Plant response rating, Rape” value (rape; [5]) was 0. The “Rape plant response rating” value (rape; [6]) was 10, the “Rape plant response rating” value (rape; [7]) was 0 and the “Rape plant response rating” value (rape; [8]) was 0. For the same molecule, the “Soybean plant response rating” value (soybean; [1]) was 1, the “Soybean plant response rating” value (soybean; [2]) was 2 and the “Soybean plant response rating” value (soybean; [3]) was 0. The “Plant response rating, Soybean” value (soybean; [4]) was 0, the “Plant response rating, Soybean” value (soybean; [5]) was 0 and the “Soybean plant response rating” value (soybean; [6]) was 0. The “Soybean plant response rating” value (soybean; [7]) was 1, the “Soybean plant response rating” value (soybean; [8]) was 2 and the “Sugarbeets plant response rating” value (sugar beet; [1]) was 0. For the same molecule, the “Sugarbeets plant response rating” value (sugar beet; [2]) was 0, the “Sugarbeets plant response rating” value (sugar beet; [3]) was 0 and the “Plant response rating, Sugarbeets” value (sugar beet; [4]) was 0. For the same molecule, the “Plant response rating, Sugarbeets” value (sugar beet; [5]) was 0, the “Sugarbeets plant response rating” value (sugar beet; [6]) was 4 and the “Sugarbeets plant response rating” value (sugar beet; [7]) was 0. The “Sugarbeets plant response rating” value (sugar beet; [8]) was 0, the “Velvetleaf plant response rating” value (velvetleaf; [1]) was 0 and the “Velvetleaf plant response rating” value (velvetleaf; [2]) was 0. The “Velvetleaf plant response rating” value (velvetleaf; [3]) was 0, the “Plant response rating, Velvetleaf” value (velvetleaf; [4]) was 0 and the “Plant response rating, Velvetleaf” value (velvetleaf; [5]) was 0. For the same molecule, the “Velvetleaf plant response rating” value (velvetleaf; [6]) was 0, the “Velvetleaf plant response rating” value (velvetleaf; [7]) was 0 and the “Velvetleaf plant response rating” value (velvetleaf; [8]) was 0. The “Wheat plant response rating” value (wheat; [1]) was 0, the “Wheat plant response rating” value (wheat; [2]) was 2 and the “Wheat plant response rating” value (wheat; [3]) was 0. The “Plant response rating, Wheat” value (wheat; [4]) was 0, the “Plant response rating, Wheat” value (wheat; [5]) was 0 and the “Wheat plant response rating” value (wheat; [6]) was 3. For the same molecule, the “Wheat plant response rating” value (wheat; [7]) was 0, the “Wheat plant response rating” value (wheat; [8]) was 4 and the “Wild oats plant response rating” value (wild oat; [1]) was 0. For the same molecule, the “Wild oats plant response rating” value (wild oat; [2]) was 0, the “Wild oats plant response rating” value (wild oat; [3]) was 0 and the “Plant response rating, Wild oats” value (wild oat; [4]) was 0. The “Plant response rating, Wild oats” value (wild oat; [5]) was 8, the “Wild oats plant response rating” value (wild oat; [6]) was 8 and the “Wild oats plant response rating” value (wild oat; [7]) was 0. For the same molecule, the “Wild oats plant response rating” value (wild oat; [8]) was 2, the “Rice plant response rating” value (rice; [1]) was 2 and the “Rice plant response rating” value (rice; [9]) was 2. The “Rice plant response rating” value (rice; [10]) was 2, the “Rice plant response rating” value (rice; [11]) was 2 and the “S. Flatsedge plant response rating” value (smallflower flatsedge; [1]) was 0. The “S. Flatsedge plant response rating” value (smallflower flatsedge; [9]) was 0, the “S. Flatsedge plant response rating” value (smallflower flatsedge; [10]) was 0 and the “S. Flatsedge plant response rating” value (smallflower flatsedge; [11]) was 0.
